Where two headings read alike, the source gives them in different places.
Experiments:
peripheral axons = assay: Threshold tracking of peripheral nerve excitability in anesthetized rats; type: in vivo; details: rat
Method: Threshold Tracking to Measure the Effects of Example 1 at 3.10 and 30 mg/kg IP on Peripheral Nerve Excitability
Threshold tracking is a non-invasive technique that allows measurement of the excitability properties of peripheral axons by providing information about their membrane potential and ion channel function.
16 male Wistar rats from Charles River, weighing between 307-446 g ware used. Animals are group housed with standard housing conditions (4 per cage, 07:00 h to 19:00 h light phase, constant temperature (21° C.) and humidity, and free access to food and water, as well as environmental enrichment).
Rats are anesthetized with isoflurane (2-2.5%, O2 at 0.5 L/min) and then placed on their back on a heating pad to keep the tail temperature above 32° C. The placement of the ring electrodes are marked out and the marked sections of the tail are scraped with a blade to remove hair and the top layer of skin. The sites are cleaned with water and dried, allowing fora good conduction between the skin and the sticky electrodes.
A sticky ring stimulating electrode (+ve anode) is wrapped around the foot. A second sticky ring stimulating electrode (−ve cathode) is wrapped 1.5 cm from the base of the tail. A needle recording electrode is placed just off center on the top of the tail, 6 cm distal to the stimulating cathode at the base of the tail. A needle reference electrode is placed just off center on the top of the tail, 2 cm distal to the recording electrode. A sticky ground electrode is wrapped around the tail 2 cm proximal from the recording electrode.
• Start the Multitrack program (description below) and Spike. • Record 15 min of stable baseline • After the 15 min, dose with Example 1 or HEC • Take blood spot for PK at the following: • 10 min post dose • 20 min post dose • 30 min post dose • 40 min post dose • 45 min after IP (intraperitoneal) dosing with Example 1, dose XE-991 (XE-991 is a commercially available compound that blocks KCNQ potentiator effects in a formalin assay in vivo—see Y. Zheng, et al., “Activation of peripheral KCNQ channels relieves gout pain,” Pain, 156 (2015) 1025-1035; and R. Zaczek, et al., “Two New Potent Neurotransmitter Release Enhancers, 10,10-Bis(4-Pyridinylmethyl)-9(10H)-Anthracenone and 10,10-Bis(2-Fluoro-4-Pyridinylmethyl)-9(10H)-Anthracenone: Comparison to Linopirdine” The Journal of Pharmacology and Experimental Therapeutics, 285:724-730, 1998. • (XE-991 is only dosed after Example 1 at 30 mg/kg) • Take blood spot for PK at the following: • 10 min post dose (55 min post Example 1 administration) • 20 min post dose (65 min post Example 1 administration) • 30 min post dose (75 min post Example 1 administration) • 40 min post dose (85 min post Example 1 administration)
In threshold tracking assay to measure the excitability properties of peripheral axons studies in rat, compound is administered by IP at 3, 10 or 30 mg/kg using 1% hydroxyethylcellulose: 0.25% polysorbate 80:0.05% antifoam:purified water (HEC) formulation. Dry blood spots (DBS) are collected around 10, 20, 30 and terminal 40 min post-dose. DBS samples are dried at RT for around 2 h. Brain samples are obtained at terminal time point and frozen until analysis. DBS samples are shipped and stored at RT.

[1] = test system: motor neurons derived from ALS patient iPSC line with pathogenic repeat expansion mutation in C9orf72; assay: Optopatch excitability assay in motor neurons derived from ALS patient iPSC line (C9orf72 repeat expansion); type: cell-based; details: Homo sapiens, read-out: EC50, inhibition of excitability (action potential frequency)
Description: Optopatch Excitability Assay for Example 1 in Motor Neurons Derived From ALS Patient iPSC Lines
Altered excitability of cortical neurons and lower motor neuron is an important factor in the pathophysiology of ALS (See, for example, K. Kanai, et. al., J Neurol Neurosurg Psychiatry, 83, 734-738 (2012); P. Menon, et. al., Eur Neurol., 24, 816-824 (2017)). All-optical electrophysiology (“Optopatch”) was used to evaluate excitability in cultured motor neurons derived from iPSC lines from two ALS patients with different pathogenic mutations.
Cell Culture: The two iPSC lines are derived from one patient with a pathogenic mutation in TARDBP and one patient with a pathogenic repeat expansion mutation in C9orf72, respectively. Motor neurons are generated from these lines by a 2D differentiation method adapted from the dual SMAD inhibition neuronal patterning protocol (See S. M. Chambers, et. al., Nat Biotechnol., 27, 275-280 (2009)) by inclusion of motor neuron morphogens. Differentiation is verified by visual inspection, karyotyping and staining for beta-III-tubulin and the nuclear motor neuron marker ISL1. Neurons are cultured on a monolayer of mouse glia in mTeSR (Stem Cell Technologies), supplemented with 10 ng/mL BDNF. Forty-eight hours prior to imaging, 100 nM trans-retinal was added to the medium.
Transduction with Optopatch vectors: At 15 days in vitro, cultured motor neurons are transduced with a lentiviral vector to drive the co-expression of the actuator CheRiff-mOrange2 and the voltage indicator QuasAr3-Citrine (for details see D. R. Hochbaum, et. al., Nat. Methods, 11, 825-833 (2014)). Forty-eight hours prior to imaging, 100 nM trans-retinal was added to the medium.
Solutions: Recordings are performed in Brainphys™ imaging buffer with 3 mM potassium. […]
Optopatch Recordings: Five days after transduction, Optopatch imaging is performed on a custom, ultra-widefield fluorescence microscope at RT. Motor neurons are illuminated with red laser excitation (200 W/cm^2; 635 nm) to monitor changes in QuasAr fluorescence and blue LED excitation (0-127 mW/cm^2, 470 nm) to depolarize the cell membrane with CheRiff. […] Optopatch data are recorded using a Hamamatsu ORCA-Flash 4.0 sCMOS camera with a 1 kHz frame rate. […]
Data Analysis: Image segmentation analysis is performed using temporal Principle Component Analysis and spatial-temporal Independent Component Analysis to isolate individual neurons. A spike-finding algorithm is used to find action potentials, and data are analyzed for compound effects on mean firing rate, adaptation, rheobase and action potential waveform shape by comparing to vehicle controls (for detail, see C. A. Werley, et. al., Curr. Protoc. Pharmacol., 78, 11.20.1-11.20.24. (2017)). […]

CC(C)(C)[C@H](O)CNC(=O)NCc1ccnc(OCC(F)(F)F)c1 [Example 1, 1-[(2S)-2-hydroxy-3,3-dimethyl-butyl]-3-[[2-(2,2,2-trifluoroethoxy)-4-pyridyl]methyl]urea]
Threshold Tracking absolute threshold for 40% CMAP (±SEM) (peripheral axons; 3 mg/kg (IP)): 121 (±10) % baseline
Threshold Tracking absolute threshold for 40% CMAP (±SEM) (peripheral axons; 10 mg/kg (IP)): 140 (±8) % baseline
Threshold Tracking absolute threshold for 40% CMAP (±SEM) (peripheral axons; 30 mg/kg (IP)): 160 (±18) % baseline
absolute threshold compared with vehicle (peripheral axons; 30 mg/kg IP, Bonferroni multiple comparisons test): significantly increased absolute threshold
EC50 ([1]; Diff 1, blue LED 5.1 mW/cm^2, mean): 170 nM
EC50 ([1]; Diff 2, blue LED 5.1 mW/cm^2, mean): 200 nM
